Data on three compounds can be found in PMC11664589, “A Versatile “Synthesis Tag” (SynTag) for the Chemical Synthesis of Aggregating Peptides and Proteins” (Journal of the American Chemical Society, 2024).

Starred links: 1 amine or outer side, 2 acyl side, 3 side chain; linkers in the order of their positions; H or OH if unused. Non-standard residues stand in square brackets, D forms with d. Residues, ends and D or L forms follow the SMILES beside them. No end group written: not given here. X1 = C[C@H](N[*:1])C(=O)n1c(=O)n(C)c2ccc(C(=O)[*:2])cc21

The nature of data set [1]: UHPLC elution as indicator of hydrophilicity. The data set is classed as physicochemical. The conditions noted are these: standard UHPLC conditions, 214 nm; with versus without SynTag.
The conditions of data set [2]: once synthesized; cited from earlier work. The text has this: Amyloid-β is a biologically relevant peptide that is investigated for its role in Alzheimer’s disease (Figure 5D). The peptide is notoriously difficult to synthesize because it severely aggregates at the very beginning of the synthesis (i.e., residues 27–42).

Consider KGAIIGLMVGGVVIA-NH2 [Aβ42[27–42]], for which, in data set [1], the “hydrophilicity by UHPLC elution / peak shape (in words)” value is “elutes later than Aβ42[27–42]-MeNbz-Arg6”.
Same read-out and setting: then `CC[C@H](C)[C@H](NC(=O)[C@H](C)NC(=O)CNC(=O)[C@@H](N)CCCCN)C(=O)N[C@H](C(=O)NCC(=O)N[C@@H](CC(C)C)C(=O)N[C@@H](CCSC)C(=O)N[C@H](C(=O)NCC(=O)NCC(=O)N[C@H](C(=O)N[C@H](C(=O)N[C@H](C(=O)N[C@@H](C)C(=O)n1c(=O)n(C)c2ccc(C(=O)N[C@@H](CCCNC(=N)N)C(=O)N[C@@H](CCCNC(=N)N)C(=O)N[C@@H](CCCNC(=N)N)C(=O)N[C@@H](CCCNC(=N)N)C(=O)N[C@@H](CCCNC(=N)N)C(=O)N[C@@H](CCCNC(=N)N)C(N)=O)cc21)[C@@H](C)CC)C(C)C)C(C)C)C(C)C)[C@@H](C)CC` [Aβ42[27–42]-SynTag] (H-KGAIIGLMVGGVVI[X1]RRRRRR-NH2), with “increased hydrophilicity”.
Consider “Amyloid-β: biologically relevant peptide investigated for its role in Alzheimer’s disease”, for which, in data set [2], the “solubility (in words)” value is “barely soluble”.
